According to patent US11642366B2, “Methods for preventing a serious health consequence and/or tissue damage after exposure to ionizing radiation and/or chemotherapy” (GLYCOMIRA THERAPEUTICS, INC., priority 2018, dated 2023):

Tests used:
[1] = system: ROM (radiation induced oral mucositis) in the tongue; test: Study (1): single dose x-ray irradiation induced ROM, necropsy and histology of the tongue; assay type: in vivo, mouse (BDF1 male); settings: 30 mg/kg SQ once daily day -2 to 7
Source text: Modified hyaluronan (referred to herein as GM-1111) used to treat the animals is a sulfated hyaluronan methylated at the primary C-6 hydroxyl position of an N-acetyl-glucosamine residue and having a molecular weight of approximately 5.5 kDa.
Approximately 7-8 weeks of old male BDF1 (B6D2F1) mice were purchased from Charles River Laboratories (MA). These animals were housed in a room with fully controlled environment (temperature, humidity, and light/dark cycle). The feed and water were freely accessible to all animals throughout the entire study period. All animals were acclimatized for one week prior to the irradiation and they were approximately 8-10 weeks old at the time of the study. The experimental protocol (16-07008) was approved by the University of Utah Institutional Animal Care and Use Committee (IACUC). […]
(§1) Body weights of the animals were measured every other day from 2 days prior to the first irradiation day (day 0). Clinical signs were monitored every day during the entire experimental period. […]
Histological observations were graded for each category and the sum of these grades was used to designate the severity of each sample. The resulting severity scores from all irradiation groups were analyzed with Kruskal-Wallis test followed by Dunnett-type multiple comparison test using nparcomp package. […]

[2] = system: myeloperoxidase (MPO); test: Study (1): tissue concentrations of myeloperoxidase (MPO) in tongue homogenate by ELISA; assay type: in vivo, mouse (BDF1 male); settings: 30 mg/kg SQ once daily day -2 to 7; 20 Gy; day 8; vehicle/irradiated 50%
Source text: Prior to the x-ray irradiation, all animals except the healthy control group were gently guided into a restrainer for short durations. This behavioral training was held once daily for two days and it was designed to reduce potential stresses on the animals during the once daily irradiation session. For head-only irradiation, the restrainers containing the animals were shielded with a lead block that had rectangular holes to expose the head. X-rays were generated by RS2000 Biological Research Irradiator (Rad Source Technologies, GA) with parameters set as 160 kV/25 mA. For study (1), the animals were divided into 4 groups (10 mice for each group)—vehicle (phosphate buffered saline) treated healthy, vehicle treated ROM, GM-1111 treated ROM, and HA treated ROM. […]
as §1
All tongue samples were thawed on ice prior to homogenization. […] The total protein concentration of the supernatant was measured for each sample using the Pierce™ Protein Assay kit. Tissue concentrations of IL-6 and myeloperoxidase (MPO) were then determined with commercially available ELISA kits: IL-6 (BioLegend, CA) and MPO (R&D Systems, MN). […]

Substance: Hyaluronic acid [HA]
- Overall effect against ROM (necropsy, MPO, histology) ([1]; 20 Gy): did not show any measurable therapeutic benefits
- Ulcerative lesions in the tongue at necropsy (Toluidine Blue staining) ([1]; 20 Gy head-only x-ray on day 0, necropsy day 8): severe ulcerative lesions in the tongue similar to the vehicle treated animals
- Animals with higher than normal range of MPO in the tongue [2]: about 70%
